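Tested at 5 concentrations; 48 h exposure; 96-well plates; endpoints linearly interpolated, else capped at highest concentration. Abbreviation: GI50, concentration required for 50% inhibition of growth.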 Activity calls are given as the source filed them. No stated cut-off is given here; in the data, active = GI50 up to about 1.1 µM and inactive = higher.
Legend:
Assay in all cases: inhibition of tumour cell growth, NCI panel, 48 h
SK-MEL-28 = test system: SK-MEL-28
HCT-116 = test system: HCT-116
OVCAR-4 = test system: OVCAR-4
UACC-62 = test system: UACC-62
KM12 = test system: KM12
SW-620 = test system: SW-620
HCT-15 = test system: HCT-15
LOX IMVI = test system: LOX IMVI
EKVX = test system: EKVX
CAKI-1 = test system: CAKI-1
SK-OV-3 = test system: SK-OV-3
U-251 = test system: U-251
MOLT-4 = test system: MOLT-4
NCI-H23 = test system: NCI-H23
SF-295 = test system: SF-295
Malme-3M = test system: Malme-3M
HOP-62 = test system: HOP-62
NCI-H522 = test system: NCI-H522
A498 = test system: A498
HCC 2998 = test system: HCC 2998

| SMILES | GI50 (SK-MEL-28) | GI50 (HCT-116) | GI50 (OVCAR-4) | GI50 (UACC-62) | GI50 (KM12) | GI50 (SW-620) | GI50 (HCT-15) | GI50 (LOX IMVI) | GI50 (EKVX) | GI50 (CAKI-1) | GI50 (SK-OV-3) | GI50 (U-251) | GI50 (MOLT-4) | GI50 (NCI-H23) | GI50 (SF-295) | GI50 (Malme-3M) | GI50 (HOP-62) | GI50 (NCI-H522) | GI50 (A498) | GI50 (HCC 2998) |
| --- | --- | --- | --- | --- | --- | --- | --- | --- | --- | --- | --- | --- | --- | --- | --- | --- | --- | --- | --- | --- |
| CCSc1nc(N)c2c(-c3ccc(OC)c(OC)c3)c3c(nc2n1)CCCC3 | > 100 µM (inactive) | > 100 µM (inactive) | > 100 µM (inactive) | > 100 µM (inactive) | > 100 µM (inactive) | > 100 µM (inactive) | > 100 µM | > 100 µM (inactive) | > 100 µM (inactive) | > 100 µM (inactive) | > 100 µM (inactive) | > 100 µM (inactive) | > 100 µM (inactive) | > 100 µM (inactive) | > 100 µM (inactive) | > 100 µM (inactive) | > 100 µM (inactive) | – | – | – |
| Cc1c(OCc2ccccc2)c(=O)ccn1CCc1c[nH]c2ccccc12 | – | 38.3 µM (inactive) | – | 27.4 µM (inactive) | 33.7 µM (inactive) | 36.1 µM (inactive) | 74.8 µM | 44.6 µM (inactive) | 41.3 µM (inactive) | – | > 100 µM (inactive) | 29.6 µM (inactive) | 1.9 µM (inactive) | 37.6 µM (inactive) | 56.4 µM (inactive) | 22.1 µM (inactive) | > 100 µM (inactive) | 21.3 µM (inactive) | – | – |
| O=C(N/N=C/C=C/c1ccc([N+](=O)[O-])o1)c1ccc(Br)s1 | 22.4 µM (inactive) | 3.48 µM (inactive) | 18.9 µM (inactive) | 23.2 µM (inactive) | 17.8 µM (inactive) | 16.1 µM (inactive) | 13.2 µM | 19.9 µM (inactive) | 31.2 µM (inactive) | 27.9 µM (inactive) | > 100 µM (inactive) | 28.1 µM (inactive) | 13.3 µM (inactive) | 14.9 µM (inactive) | > 100 µM (inactive) | 14.9 µM (inactive) | 51.2 µM (inactive) | – | 32.1 µM (inactive) | – |
| NC(=O)C1(c2ccccc2)Nc2ccccc2S1 (stereo unspecified) | > 100 µM (inactive) | > 100 µM (inactive) | > 10 µM (inactive) | > 100 µM (inactive) | > 100 µM (inactive) | > 100 µM (inactive) | > 100 µM | > 100 µM (inactive) | > 100 µM (inactive) | > 100 µM (inactive) | > 100 µM (inactive) | > 100 µM (inactive) | > 100 µM (inactive) | > 100 µM (inactive) | – | > 100 µM (inactive) | > 100 µM (inactive) | > 100 µM (inactive) | – | > 100 µM (inactive) |
| COc1ccc(Sc2ccccc2N)cc1 | 43.4 µM (inactive) | 49 µM (inactive) | 34.8 µM (inactive) | 71.4 µM (inactive) | 41.3 µM (inactive) | 57.1 µM (inactive) | 37 µM | 64 µM (inactive) | 53.7 µM (inactive) | – | > 100 µM (inactive) | 19 µM (inactive) | 26.9 µM (inactive) | 43.6 µM (inactive) | 39.3 µM (inactive) | 57.8 µM (inactive) | 65.9 µM (inactive) | – | > 100 µM (inactive) | 41 µM (inactive) |
| COc1cc2c(cc1OC)-c1c(cnn1C1OC(COC(C)=O)C(OC(C)=O)C(OC(C)=O)C1OC(C)=O)CC2 (stereo unspecified) | > 100 µM (inactive) | > 100 µM (inactive) | > 100 µM (inactive) | > 100 µM (inactive) | > 100 µM (inactive) | > 60.7 µM (inactive) | > 100 µM | > 100 µM (inactive) | > 100 µM (inactive) | > 100 µM (inactive) | > 100 µM (inactive) | 34.1 µM (inactive) | > 81.5 µM (inactive) | > 100 µM (inactive) | > 100 µM (inactive) | – | > 100 µM (inactive) | 18.7 µM (inactive) | > 100 µM (inactive) | – |
| CN1CC=C(c2cccn2C)CC1 | > 100 µM (inactive) | > 100 µM (inactive) | > 100 µM (inactive) | > 100 µM (inactive) | > 100 µM (inactive) | > 100 µM (inactive) | > 100 µM | > 100 µM (inactive) | > 100 µM (inactive) | > 100 µM (inactive) | > 100 µM (inactive) | > 100 µM (inactive) | > 100 µM (inactive) | > 100 µM (inactive) | > 100 µM (inactive) | > 100 µM (inactive) | > 100 µM (inactive) | > 100 µM (inactive) | – | > 100 µM (inactive) |
| CC(=O)OC(C(=O)O)C(OC(C)=O)C(OC(C)=O)C(OC(C)=O)C(=O)O (stereo unspecified) | > 100 µM (inactive) | > 100 µM (inactive) | – | > 100 µM (inactive) | > 100 µM (inactive) | > 100 µM (inactive) | > 100 µM | > 100 µM (inactive) | > 100 µM (inactive) | > 100 µM (inactive) | > 100 µM (inactive) | > 100 µM (inactive) | > 100 µM (inactive) | > 100 µM (inactive) | > 100 µM (inactive) | > 100 µM (inactive) | > 100 µM (inactive) | > 100 µM (inactive) | > 100 µM (inactive) | – |

Reference: ChEMBL document CHEMBL1201862, “PubChem BioAssay data set” (2004)
